15 compounds from patent US6638919B2, “Antiviral purine derivatives” (University College Cardiff Consultants Limited, priority 2001, dated 2003) can be followed below.

Holding throughout (assay type): cell-based
Series [1] concerns HIV-1. Kind of series: Inhibition of HIV-1 giant cell formation in CEM cells. As to conditions: Table III; EC50 for inhibition of HIV1 in CEM cells; read-out: HIV1 CBM. How it is done: (§1) Then 100 μL of the infected cell suspension was transferred to microtiter plate wells and mixed with 100 μL of the appropriate dilutions of the test compounds.
HIV 1 CEM: EC50 in μM for inhibition of HIV1 in CEM cells

For series [2], the system named is HIV-2. Kind of series: Inhibition of HIV-2 giant cell formation in CEM cells. The settings on record: Table III; EC50 for inhibition of HIV-2 in CEM cells; read-out: HIV2 CBM. On the procedure: as §1
HIV1 CEM: EC50 in μM for inhibition of […] in CEM cells.
HIV2 CEM: EC50 in μM for inhibition of HIV-2 in CEM cells

Series [3] relates to CEM cells. Briefly: Toxicity to mock-infected CEM cells (CC50). The settings on record: Table III; toxicity to CEM cells; read-out: CC50 CEN. On the procedure:
as §1
CC50 CEM: CC50 in μM for toxicity to CEM cells.
CC50 CEM: CC50 μM for toxicity to CEM cells

Series [4] concerns MSV. Briefly: Minimum cytotoxic concentration in MSV assay. On the set-up: unit not given here. The settings on record: Table III. An excerpt:
MCC MSV: minimum cytotoxic concentration in MSV essay.

The subject of series [5] is MSV. Briefly: Inhibition of MSV. The settings on record: Table III; inhibition of MSV; read-out: EC50 MSV. How it is done:
EC50 MSV: EC50 μM for inhibition of MSV

Molecules are shown by their SMILES. Where a name gives a salt, the structure may show the parent alone.

For the compound `C[C@H](NP(=O)(O)OC[C@@H]1C=C[C@H](n2cnc3c(NC4CC4)nc(N)nc32)C1)C(=O)O` [Compound 1540, (1S,4R)-4-(2-amino-6-cyclopropylamino-9H-purin-9-yl)-2-cyclopentene-1-methanol O-(L-alaninyl)-phosphate diammonium salt], the EC50 in series [1] was found to be 1200 nM; in series [2], 950 nM. For the same compound, the CC50 in series [3] came out at 115 µM.

Consider `C[C@H](NP(=O)(OC[C@@H]1C=C[C@H](n2cnc3c(NC4CC4)nc(N)nc32)C1)Oc1ccccc1)C(=O)OCc1ccccc1` (stereo partly drawn) [Compound 1582, (1S,4R)-4-(2-amino-6-cyclopropylamino-9H-purin-9-yl)-2-cyclopentene-1-methanol O-[phenyl-(enzoxy-L-alaninyl)]-phosphate], for which the EC50 came to 83 nM in series [1] and 110 nM in series [2]. In series [3], the CC50 came out at 12.5 µM.

As for `COC(=O)[C@@H](C)NP(=O)(OC[C@@H]1C=C[C@H](n2cnc3c(NC4CC4)nc(N)nc32)C1)Oc1ccccc1` (stereo partly drawn) [Compound 1583, (1 S,4R)-4-(2-amino-6-cyclopropyiamino-9H-purin-9-yl)-2-cyclopentene-1-methanol O-[phenyl-(methoxy-D-alaninyl)]-phosphate], the EC50 in series [1] was determined as 1380 nM; in series [2], 4500 nM. In addition, in series [3], the CC50 amounted to 64.3 µM.

Regarding `COC(=O)C(C)(C)NP(=O)(OC[C@@H]1C=C[C@H](n2cnc3c(NC4CC4)nc(N)nc32)C1)Oc1ccccc1` (stereo partly drawn) [Compound 1584, (1S,4R)-4-(2-amino-6-cyclopropylamino-9H-purin-9-yl)-2-cyclopentene-1-methanol O-[phenyl-(methoxy-α,adimethylglycinyl)]-phosphate], the EC50 in series [1] was found to be 67 nM; in series [2] it was 60 nM. For the same compound, in series [3], the CC50 stood at 8.91 µM.

Turning to `COC(=O)[C@H](Cc1ccccc1)NP(=O)(OC[C@@H]1C=C[C@H](n2cnc3c(NC4CC4)nc(N)nc32)C1)Oc1ccccc1` (stereo partly drawn) [Compound 1585, (1,S,4R)-4-(2-amino-6-cyclopropylamino-9H-purin-9-yl)-2-cyclopentee-1-methain O-[phenyl-(methoxy-L-phenylalaninyl)]-phosphate], the results for the EC50 in series [1] and in series [2] were 1420 nM and 2130 nM, respectively. In addition, the CC50 in series [3] was determined as 36.1 µM.

As for `COC(=O)CNP(=O)(OC[C@@H]1C=C[C@H](n2cnc3c(NC4CC4)nc(N)nc32)C1)Oc1ccccc1` (stereo partly drawn) [Compound 1588, (1 S,4R)-4-(2-amino-6-cyclopropylamino-9H-purin-9-yl)-2-cyclopentene-1-methanol O-[phenyl-(methoxy-glycinyl)]-phosphate], the EC50 in series [1] was 1780 nM; in series [2], 2000 nM. Besides, in series [3], the CC50 was not below 100 µM.

For `COC(=O)C[C@H](NP(=O)(OC[C@@H]1C=C[C@H](n2cnc3c(NC4CC4)nc(N)nc32)C1)Oc1ccccc1)C(=O)OC` (stereo partly drawn) [Compound 1589, (1S,4R)-4-(2-amino-6-cyclopropylamin9H-purin-9-yl)-2-cyclopentene-1-methanol O-[phenyl-(L-asparic acid dimethyl ester)]-phosphate], the EC50 in series [1] was found to be 1420 nM; in series [2] it was 1900 nM. The 50% cytotoxic concentration (CC50) in series [3] worked out at 44.2 µM.

On to `C[C@H](NP(=O)(OC[C@@H]1C=C[C@H](n2cnc3c(NC4CC4)nc(N)nc32)C1)Oc1ccccc1)C(=O)OC(C)(C)C` (stereo partly drawn) [Compound 1645, (1S,4R)-4-(2-amino-6-cyclopropylamino-9H-purin-9-yl)-2-cyclopentene-1-methanol O-(phenyl-tertbutyloxy-L-alaninyl)-phosphate], for which the EC50 in series [1] is 3700 nM; in series [2] it was 6000 nM; in series [5], 11700 nM. Moreover, the CC50 in series [3] was 33 µM. Moreover, in series [4], the MCCMSV is reported as more than 20.

With `CCCOC(=O)[C@H](C)NP(=O)(OC[C@@H]1C=C[C@H](n2cnc3c(NC4CC4)nc(N)nc32)C1)Oc1ccccc1` (stereo partly drawn) [Compound 1646, (1S,4R)-4-(2-amino-6-cyclopropylamino-9H-purin-9-Sl)-2-cyclopentene-1-methanol O-Phenyl-(n-propoxy-L-alaninyl)-phosphate], the values for the EC50 in series [1], in series [2] and in series [5] were 93 nM, 120 nM and 2000 nM, respectively. Also, the CC50 in series [3] is 9 µM. This compound also had an MCCMSV in series [4] of more than 4.

As for `CCCCOC(=O)[C@H](C)NP(=O)(OC[C@@H]1C=C[C@H](n2cnc3c(NC4CC4)nc(N)nc32)C1)Oc1ccccc1` (stereo partly drawn) [Compound 1647, (1S,4R)-4-(2-amino-6-cyclopropylamino-9H-purin-9-yl)-2-cyclopentene-1-methanol O-Phenyl-(n-butoxy-L-alaninyl)-phosphate], the figures for the EC50 in series [1], in series [2] and in series [5] were 85 nM, 170 nM and 620 nM, respectively. The CC50 in series [3] was determined as 8.23 µM. This compound also showed an MCCMSV in series [4] of more than 4.

`CC(C)CCOC(=O)C(C)NP(=O)(OC[C@@H]1C=C[C@H](n2cnc3c(NC4CC4)nc(N)nc32)C1)Oc1ccccc1` (stereo partly drawn) [Compound 1674, (1S,4R)-4-(2-amino-6-cyclopropylamino-9H-purin-9-yl)-2-cyclopentene-1-methanol O-(phenyl (3-methylbutyl)oxyalaninyl phosphate)]: the EC50 in series [2] was 250 nM; in series [5], 2040 nM. Moreover, in series [3], the CC50 amounted to 10.7 µM. For the same compound, the MCCMSV in series [4] was more than 4.

As for `COC(=O)CC[C@H](NP(=O)(OC[C@@H]1C=C[C@H](n2cnc3c(NC4CC4)nc(N)nc32)C1)Oc1ccccc1)C(=O)OC` (stereo partly drawn) [Compound 1749, (1S,4R)-4-(2-amino6-cyclopropylamino-9H-purin-9-yl)-2-cyclopentene-1-methanol O-(phenyldimethoxy-L-glutamyl phosphate)], the EC50 in series [1] was determined as 3500 nM; in series [2], 5330 nM. In addition, the CC50 in series [3] was determined as 36.9 µM.

`COC(=O)[C@H](Cc1c[nH]c2ccccc12)NP(=O)(OC[C@@H]1C=C[C@H](n2cnc3c(NC4CC4)nc(N)nc32)C1)Oc1ccccc1` (stereo partly drawn) [Compound 1750, (1S,4R)-4-(2-amino-6-cyclopropylamino-9H-purin-9-yl)-2cyclopentene-1-methanol O-(phenylmethoxy-L-tryptophanyl phosphate)]: the EC50 came to 3000 nM in series [1] and 3670 nM in series [2]. Besides, the CC50 in series [3] worked out at 18.3 µM.

On to `CC[C@H](C)[C@H](NP(=O)(OC[C@@H]1C=C[C@H](n2cnc3c(NC4CC4)nc(N)nc32)C1)Oc1ccccc1)C(=O)OC` (stereo partly drawn) [Compound 1751, (1S,4R)-4-(2-amino-6-cyclpropylamino-9H purin-9-yl)-2-cyclopentene-1-methanol O-(phenylmethoxy-L-isoleucinyl phosphate)], for which the EC50 in series [1] came out at 7000 nM; in series [2], 5330 nM. Besides, the CC50 in series [3] was found to be 24.2 µM.

As to `C[C@H](NP(=O)(OC[C@@H]1C=C[C@H](n2cnc3c(NC4CC4)nc(N)nc32)C1)Oc1ccccc1)C(=O)OC1CCCCCC1` (stereo partly drawn) [Compound 1752, (1S,4R)-4-(2-amino-6-cyclopropylamino-9-H-purin-9-yl)2-cyclopentene-1-methanol O-(phenyl (cycloheptanyl)oxyalaninyl phosphate)], the figures for the EC50 in series [1] and in series [2] were 1300 nM and 1050 nM, respectively. Besides, in series [3], the CC50 stood at 6.32 µM.

For orientation: CC50 means the concentration giving 50% cytotoxicity.
